Broadly, the pIC50 is the negative decadic logarithm of the IC50, by convention in mol/L. The low end stands for a high IC50, the high end for a low IC50.

The values that follow come from patent US6274619A, “Amidino substituted tetrahydrobenzo thiophene or furan derivatives and their use as urokinase inhibitors” (Fujisawa Pharmaceutical Co., Ltd., priority 1996, dated 2001).

pIC50: −log10 of the molar value. Structures can show the parent of a compound that is named as a salt.

The target in the experiment is T1, human high molecular weight urokinase (Homo sapiens, UniProt P00749).
T1 construct: purchased Fujisawa Pharmaceutical Co., Ltd
As to the kind of experiment: Urokinase inhibiting effect (chromogenic substrate S-2288). Type of experiment: biochemical. The note with it: 25 IU/ml urokinase, substrate S-2288, pH 7.5, 37° C., 30 minutes, A405. How it is done:
Now in order to show the utility of the object compound (I) and pharmaceutically acceptable salts, the test datum on urokinase inhibiting effect of the representative compound of the compound (I) of this invention is shown in the following.
Test Compound was incubated at desired concentrations with 25 International Units (IU)/ml human high molecular weight urokinase (Fujisawa Pharmaceutical Co., Ltd.) and urokinase substrate (S-2288, H-D-Isoleucyl-L-prolyl-L-arginine-p-nitroaniline dihydrochloride; Chromagenix, Sweden; Japan distributors Daiichikagakuyakuhin Co., Ltd.) in a 100 μl final volume of 50 mM Tris, 100 mM NaCl, 1 mM Na2 EDTA, 0.01% (v/v) polyoxyethylenesorbitan monooleate (Tween 80), pH 7.5 (Buffer Z). Incubations were carried out at 37° C. for 30 minutes. Color was quantitated by measuring absorbance at 405 nm (A405) using EL312 Automated Microplate Reader.

`CCCC=C1CCCc2sc(C(=N)N)cc21` [Compound A, 2-Amidino-4-n-butylidene-4,5,6,7-tetrahydrobenzo[b]thiophene hydrochloride]: the pIC50 was 6.33.
